According to patent US20080318838A1, “PEPTIDES” (priority 1992, published 2008):
Ends that are not written are not given here.

Test: biological activity of recombinantly produced (1-38)PTH
Settings: recombinant product from Gen55-Asn-Gly-Pro-(1-38)PTH fusion
Method: From a non-optimized 20 litre fermentation a 78 g wet cell pellet with 50% expression of the fusion protein is harvested. Following lysis and centrifugation, 18 g of “90% pure” inclusion bodies are obtained. Following the acid stop step and centrifugation/filtration about 470 mg Gly-pro-PTH are detected. After HPLC on C4-Vydac, 355 mg of peptide are detected, decreasing to 321 mg after SP-Sepharose cation-exchange. Enzymatic removal of the Gly and Pro residues is carried out at 2 mg/ml.

hPTH-(1-38)-OH (SVSEIQLMHNLGKHLNSMERVEWLRKKLQDVHNFVALG-OH; UniProt P01270 32-69, looked up, fragment) [(1-38)PTH, natural human PTH fragment 1-38, produced recombinantly from a gp55 fusion protein in E. coli]
biological activity: fully biologically active
